The text below walks through data of patent publication US20190144406A1, “CRYSTALLINE FORMS OF DIMETHOXY DOCETAXEL AND METHODS FOR PREPARING THE SAME” (Aventis Pharma S.A., priority 2008, published 2019).

Structures are written as SMILES. Where two headings read alike, the source gives them in different places.

The conditions of data set [1]: solid form. The procedure:
The analyses were carried out on a Panalytical X'Pert Pro diffractometer with a reflection-mode Bragg-Brentano focusing geometry (θ-2θ) assembly. The product analysed is deposited as a thin layer on a silicon single crystal. A copper anticathode tube (45 kV/40 mA) supplies an incident radiation Cu Kα1 (λ=1.5406 Å). The beam is collimated using Sollers slits which improve the parallelism and variable slits which limit scattering. An X'Celerator detector completes the device. The diagram recording characteristics are the following: sweeping from 2 to 30 degrees 2θ, counting time from 100 to 500 seconds per step with a step of 0.017°.

Data set [2] can be described thus: behaviour of the crystalline form under relative humidity. The format is physicochemical. The following applies: relative humidity of greater than 5%.

Regarding `CO[C@H]1C(=O)[C@]2(C)[C@@H](OC)C[C@H]3OC[C@@]3(OC(C)=O)[C@H]2[C@H](OC(=O)c2ccccc2)[C@]2(O)C[C@H](OC(=O)[C@H](O)[C@@H](NC(=O)OC(C)(C)C)c3ccccc3)C(C)=C1C2(C)C` [Form A, reference compound], the “comparison of the PXRD analyses immediately after production and after maintaining at 40° C. for one month” value in data set [1] is “partial desolvation resulting in a mixture of the acetone solvate form A and of the anhydrous form B being obtained”. As to `CO[C@H]1C(=O)[C@]2(C)[C@@H](OC)C[C@H]3OC[C@@]3(OC(C)=O)[C@H]2[C@H](OC(=O)c2ccccc2)[C@]2(O)C[C@H](OC(=O)[C@H](O)[C@@H](NC(=O)OC(C)(C)C)c3ccccc3)C(C)=C1C2(C)C` [Form D], in data set [1], the “comparison of the PXRD analyses immediately after production and after maintaining at 40° C. for one month” value is “no change detected”. The “stability relative to the other forms described” value (listed as anhydrous form D) was “most stable anhydrous form”.

In the case of `CO[C@H]1C(=O)[C@]2(C)[C@@H](OC)C[C@H]3OC[C@@]3(OC(C)=O)[C@H]2[C@H](OC(=O)c2ccccc2)[C@]2(O)C[C@H](OC(=O)[C@H](O)[C@@H](NC(=O)OC(C)(C)C)c3ccccc3)C(C)=C1C2(C)C` [anhydrous form C], the “stability relative to the other forms described” value is “least stable”. In addition, the “change of form in the presence of relative humidity” value in data set [2] is “changes to a hydrated form”.
